Results published in US20160008490A1, “METAL CHELATE COMPOUNDS FOR BINDING TO THE PLATELET SPECIFIC GLYCOPROTEIN IIB/IIIA” (BAYER PHARMA AKTIENGESELLSCHAFT, priority 2013, published 2016).

Columns and labels:
[1] = biological target: T1, human GP IIb/IIIa receptor (Homo sapiens, UniProt P05106+P08514); assay: GPIIb/IIIa affinity assay (displacement of tritiated reference compound from immobilized receptor); assay type: binding; conditions: purified human GPIIb/IIIa, 60 nM 3H-labeled reference compound, 1 hour at room temperature
T1 construct: human GPIIb/IIIa purified from human platelets was immobilized on a 96-well solid plate; purchased Enzyme Research Laboratories Inc. (South Bend, Ind.); host or cells: human platelets (natural source, detergent-solubilised)
Description: Affinity assay: In the first step human GPIIb/IIIa purified from human platelets was immobilized on a 96-well solid plate. After 48 hours the plates were washed and the unspecific binding sites were blocked with Roti®-Block. 2. In the next step, the plates were simultaneously incubated with a tritium labeled known GPIIb/IIIa binder (^3H) mixed with increasing concentrations of the novel compounds (inhibitor). The higher the affinity of the inhibitor, the lower the bound fraction of the tritiated known GPIIb/IIIa binder (^3H) was. The fraction of tritiated compound (^3H), which is not displaced by inhibitor, was measured in a microplate scintillation counter.
Purified human glycoprotein IIb/IIIa (20 mM Tris-HCl, 0.1 M NaCl, 0.1% Triton X-100, 1 mM CaCl2, 0.05% NaN3, 50% Glycerol, pH 7.4) was purchased from Enzyme Research Laboratories Inc. (South Bend, Ind.). The GPIIb/IIIa receptor was diluted in phosphate-buffered saline (Dulbecco's Phosphate Buffered Saline (D-PBS (+)) with calcium and magnesium, GIBCO®, Invitrogen) with 0.01% bovine serum albumin (albumin from bovine serum—lyophilized powder, 96%, Sigma).
The GPIIb/IIIa receptor was immobilized 48 hours at least (100 μL per well, 48 to maximum 96 hours) on a 96-well solid plate (Immuno Plate MaxiSorp™, Nunc, Roskilde, Denmark) at 277 K to 280 K and at a concentration of 0.1 μg per well to 1 μg per well. As negative control one row of the plate (n=8) was incubated just with 2% bovine serum albumin (200 μL per well, albumin from bovine serum—lyophilized powder, ≧96%, Sigma, diluted in D-PBS (+)).
After washing three times with the wash buffer (230 μL per well, Dulbecco's Phosphate Buffered Saline (D-PBS (−)) contains no calcium or magnesium, GIBCO®, Invitrogen) residual exposed plastic and unspecific binding sites were blocked by incubating the plate with a special blocking solution (200 μL per well, Roti®-Block, Car Roth GmbH Co KG, Karlsruhe) containing 2% bovine serum albumin (Albumin from bovine serum—lyophilized powder, ≧96%, Sigma) 1 hour at room temperature.
After washing three times with the wash buffer 50 μL of tritiated reference compound (60 nM, ^3H-labeled compound) and 50 μL of novel compound (inhibitor) were simultaneously added to each well and incubated for 1 hour at room temperature. Several concentrations of each novel inhibitor (0.1, 1, 2, 5, 10, 20 50, 100, 200, 500, 1000, 2000, 5000, 10000 and 20000 nM) were investigated. At each concentration of inhibitor a fourfold determination was performed.
The maximum value of tritiated reference compound was determined without addition of inhibitor (n=8). To exclude unspecific binding of ^3H— reference compound wells without glycoprotein receptors were used as negative controls (n=12, identically treated just without GPIIb/IIIa receptors).
After one hour the plate was washed three times with phosphate-buffered saline (200 μL per well, Dulbecco's Phosphate Buffered Saline (D-PBS (+)), GIBCO®, Invitrogen). Following 140 μL of liquid scintillation cocktail (MicroScint™ 40 aqueous, Perkin Elmer) was added to each well. After 15 min at room temperature the plates were measured at the microplate scintillation counter (TopCount NXT v2.13, Perkin Elmer, Packard Instrument Company).
In the first step human glycoprotein IIb/IIIa, which is purified from human platelets, was immobilized on a 96-well solid plate. After 48 hours at least the plates were washed and the unspecific binding sites were blocked with Roti®-Block. In the next step, the plates were simultaneously incubated with a tritium labeled reference compound and the novel small molecule compound (inhibitor). The higher the affinity of the inhibitor, the smaller is the bound fraction of reference compound. The fraction of tritiated reference compound, which is not displaced by inhibitor, was measured at a microplate scintillation counter. The higher the affinity of the inhibitor, the smaller is the bound fraction of tritium-labeled reference compound. […]

[2] = test system: human activated platelets; assay: Binding of investigated compounds to human activated platelets (ICP-MS of Gd in pellet and supernatant); assay type: cell-based; conditions: incubation concentration 1 μM molecule
Description: For each experiment fresh blood was taken from a volunteer using 10 mL citrate-tubes (Sarstedt S-Monovette 02.1067.001, 10 mL, Citrate 3.13%). The 10 mL citrate-tubes were carefully inverted 10 times to mix blood and anticoagulant. The tubes were stored in an incubator at a temperature of 37° C. until centrifugation (Heraeus miniTherm CTT with integrated rotation- and turning device, turning speed: 19 rotations per minute, Heraeus Instruments GmbH, Hanau/Germany).
For plasma preparation tube centrifugation was carried out for 15 minutes at 1811 g at room temperature (Eppendorf, Centrifuge 5810R). Blood was centrifuged 15 minutes at 201 g at room temperature to produce platelet-rich plasma. The tubes were stored for 30 min at room temperature to get a better separation. The separated platelet-rich plasma was finally centrifuged for further 3 min at 453 g to remove the remaining erythrocytes. The platelet-rich plasma was activated using a final concentration of 5 μM Adenosindiphosphate (ADP, Sigma). The activated platelet-rich plasma was incubated 20 minutes with different concentrations of gadolinium-labeled compound and subsequently was centrifuged 3 minutes at 1360 g. 20 μL of incubation solution was taken to determine the concentration (n=3). […] The gadolinium concentration of supernatant and pellet was determined using an inductively coupled plasma mass spectrometry (ICP-MS Agilent 7500a).
The results for incubation concentration of 1 μM gadolinium-labeled compound are summarized in table 3 (in comparison to Gadovist® standard dose: 100 μmol Gd/kg body weight).

T1 sequence (P08514 32-887 limits assumed): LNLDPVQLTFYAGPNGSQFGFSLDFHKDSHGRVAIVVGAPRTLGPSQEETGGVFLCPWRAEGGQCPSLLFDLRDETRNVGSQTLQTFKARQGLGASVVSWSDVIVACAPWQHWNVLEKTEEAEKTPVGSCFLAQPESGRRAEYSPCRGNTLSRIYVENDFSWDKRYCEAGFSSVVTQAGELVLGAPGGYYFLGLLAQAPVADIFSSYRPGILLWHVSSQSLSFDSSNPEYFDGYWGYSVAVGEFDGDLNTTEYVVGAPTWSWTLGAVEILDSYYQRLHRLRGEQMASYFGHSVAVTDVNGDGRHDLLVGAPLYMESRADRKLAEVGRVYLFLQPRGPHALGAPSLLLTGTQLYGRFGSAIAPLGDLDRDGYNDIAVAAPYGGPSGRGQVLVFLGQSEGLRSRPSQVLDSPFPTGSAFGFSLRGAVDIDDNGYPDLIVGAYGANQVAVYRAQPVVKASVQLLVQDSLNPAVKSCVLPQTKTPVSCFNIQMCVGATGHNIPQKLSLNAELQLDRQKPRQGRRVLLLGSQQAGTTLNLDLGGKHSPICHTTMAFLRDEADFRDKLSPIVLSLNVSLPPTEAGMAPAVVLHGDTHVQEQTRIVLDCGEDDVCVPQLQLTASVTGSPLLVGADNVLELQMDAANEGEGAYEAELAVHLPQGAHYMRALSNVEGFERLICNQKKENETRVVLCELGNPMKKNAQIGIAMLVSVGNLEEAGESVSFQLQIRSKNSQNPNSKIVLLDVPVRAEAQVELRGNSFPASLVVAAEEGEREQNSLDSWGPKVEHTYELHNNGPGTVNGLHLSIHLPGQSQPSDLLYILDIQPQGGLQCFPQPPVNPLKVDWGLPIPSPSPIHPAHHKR
T1 sequence (P08514 891-1039 partner limits assumed): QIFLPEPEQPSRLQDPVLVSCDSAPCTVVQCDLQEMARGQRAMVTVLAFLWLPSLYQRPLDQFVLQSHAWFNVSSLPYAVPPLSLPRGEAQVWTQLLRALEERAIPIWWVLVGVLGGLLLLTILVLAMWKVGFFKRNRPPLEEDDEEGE
T1 sequence (P05106 27-788): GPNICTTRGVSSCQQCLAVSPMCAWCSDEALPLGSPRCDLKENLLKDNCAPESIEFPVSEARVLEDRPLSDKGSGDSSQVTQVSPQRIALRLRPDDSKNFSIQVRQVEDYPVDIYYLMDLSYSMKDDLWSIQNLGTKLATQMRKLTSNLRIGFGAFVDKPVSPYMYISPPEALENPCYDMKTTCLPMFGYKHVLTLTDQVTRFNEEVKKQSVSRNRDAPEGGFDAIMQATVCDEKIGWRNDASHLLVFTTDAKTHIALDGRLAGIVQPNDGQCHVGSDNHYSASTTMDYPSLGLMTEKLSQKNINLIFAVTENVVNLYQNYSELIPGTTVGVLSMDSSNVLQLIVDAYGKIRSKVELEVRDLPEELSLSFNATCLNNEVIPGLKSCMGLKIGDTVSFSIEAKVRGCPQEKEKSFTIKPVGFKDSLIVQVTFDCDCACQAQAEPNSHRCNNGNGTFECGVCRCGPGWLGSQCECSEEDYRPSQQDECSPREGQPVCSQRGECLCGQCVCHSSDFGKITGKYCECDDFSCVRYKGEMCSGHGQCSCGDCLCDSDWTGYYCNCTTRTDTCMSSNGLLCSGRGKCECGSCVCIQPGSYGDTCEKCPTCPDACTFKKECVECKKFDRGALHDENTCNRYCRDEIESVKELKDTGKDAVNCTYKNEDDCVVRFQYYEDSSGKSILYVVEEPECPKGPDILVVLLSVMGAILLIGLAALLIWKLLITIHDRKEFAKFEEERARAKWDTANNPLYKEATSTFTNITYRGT

Question: What does the source list for CC(C(=O)NCC(=O)NC[C@H](NC(=O)CNC(=O)C(C)N1CCN(CC(=O)O)CCN(CC(=O)O)CCN(CC(=O)O)CC1)C(=O)NC[C@H](NC(=O)[C@H](CNC(=O)CNC(=O)C(C)N1CCN(CC(=O)O)CCN(CC(=O)O)CCN(CC(=O)O)CC1)NC(=O)CNC(=O)C(C)N1CCN(CC(=O)O)CCN(CC(=O)O)CCN(CC(=O)O)CC1)C(=O)NCCCCc1cccc(C#Cc2cncc([C@H](CC(=O)O)NC(=O)[C@@H]3CCCN(C(=O)CCC4CCNCC4)C3)c2)c1)N1CCN(CC(=O)O)CCN(CC(=O)O)CCN(CC(=O)O)CC1 (stereo partly drawn) [Example 8]?
Answer: IC50 [1]: 21 nM; Concentration within platelet pellet ([2]; ADP-activated platelet-rich plasma, 20 minutes, pellet washed): 26.7 ± 1.5 μM Gd; pellet/supernatant ([2]; ratio of Gd concentration): 254 ± 26 (n = 3)
